Molecular target: T1, human TPO receptor (hTPOR) (Homo sapiens, UniProt P40238)
T1 construct: expressed in transfected cells; host or cells: BaF-B03 (murine IL-3 dependent cell line)
T1 sequence (P40238 26-635): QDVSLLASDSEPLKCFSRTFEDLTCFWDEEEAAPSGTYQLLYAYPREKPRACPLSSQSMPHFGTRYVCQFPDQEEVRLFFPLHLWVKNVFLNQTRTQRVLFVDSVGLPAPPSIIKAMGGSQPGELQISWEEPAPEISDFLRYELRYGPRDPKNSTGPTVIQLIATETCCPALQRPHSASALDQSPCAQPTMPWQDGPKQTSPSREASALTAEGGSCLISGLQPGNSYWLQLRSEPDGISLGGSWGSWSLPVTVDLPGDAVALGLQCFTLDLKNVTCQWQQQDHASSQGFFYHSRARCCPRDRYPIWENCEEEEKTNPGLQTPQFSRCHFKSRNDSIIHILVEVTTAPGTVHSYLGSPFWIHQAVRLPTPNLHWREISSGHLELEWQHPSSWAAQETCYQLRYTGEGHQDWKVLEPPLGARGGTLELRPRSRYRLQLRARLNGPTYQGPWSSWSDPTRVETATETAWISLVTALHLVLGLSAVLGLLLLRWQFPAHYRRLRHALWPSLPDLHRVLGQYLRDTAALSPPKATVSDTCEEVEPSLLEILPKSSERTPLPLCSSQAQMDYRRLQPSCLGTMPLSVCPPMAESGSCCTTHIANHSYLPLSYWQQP
Experiment: Thrombopoietic activity: proliferation of TPO dependent BaF/hTPOR cells (WST-1, absorbance at 450 nm)
Type: cell-based
Details: 20 h + 4 h WST-1, ED50 = half concentration of the concentration showing the maximum thrombopoietic activity
Procedure, shortened: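 Proliferation read-out: WST-1 absorbance at 450 nm after 20 h compound exposure plus 4 h reagent, using IL-3-deprived BaF/hTPOR cells (5×10^4 per well) dependent on human TPO receptor signalling. ED50 defined as half the concentration producing maximal activity.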

Question: `CCCCCCOCCCc1cccc(-c2csc(NC(=O)c3cc(F)c(C=C(C)C(=O)O)c(F)c3)n2)c1F` [Compound B46, 3-(2,6-difluoro-4-{4-[2-fluoro-3-(3-n-hexyloxypropyl)phenyl]thiazol-2-ylcarbamoyl}phenyl)-2-methylacrylic acid] was tested. Which EC50 (Table 1) did it give?
Answer: 1.28 nM

Question: With `CCCCCCCOc1cccc(-c2csc(NC(=O)c3cc(Cl)c(/C=C(\C)C(=O)O)c(Cl)c3)n2)c1OC` [Compound B1999, (E)-3-{2,6-dichloro-4-[4-(3-heptyloxy-2-methyloxyphenyl)thiazol-2-ylcarbamoyl]phenyl}-2-methylacrylic acid] as the compound, how does the EC50 (Table 1) read?
Answer: 13.2 nM

Question: How did the EC50 (Table 1) turn out when `CCCCCCCCCCC(OC)c1cccc(-c2csc(NC(=O)c3cc(F)c(/C=C(\C)C(=O)O)c(F)c3)n2)c1OC` (stereo not shown) [Compound B355, (E)-3-(2,6-difluoro-4-{4-[2-methyloxy-3-(1-methyloxyundecyl)phenyl]thiazol-2-ylcarbamoyl}phenyl)-2-methylacrylic acid] was run?
Answer: 3.3 nM

Question: With `CO/C(=C\c1c(Cl)cc(C(=O)Nc2nc(-c3cccc(COCCC(C)(C)C)c3OC)cs2)cc1Cl)C(=O)O` [Compound B1937, (Z)-3-(2,6-dichloro-4-{4-[3-(3,3-dimethylbutyloxymethyl)-2-methyloxyphenyl]thiazol-2-ylcarbamoyl}phenyl)-2-methyloxyacrylic acid] as the compound, how does the EC50 (Table 2) read?
Answer: 23.1 nM

Question: Which EC50 (Table 1) does the source give for `CCCCCCc1cccc2c1OCc1sc(NC(=O)c3cc(Cl)c(/C=C(\C)C(=O)O)c(Cl)c3)nc1-2` [Compound A1316, (E)-3-[2,6-dichloro-4-(6-hexyl-4H-chromeno[4,3-d]thiazol-2-ylcabamoyl)phenyl]-2-methylacrylic acid] here?
Answer: 5.29 nM

Question: Which EC50 (Table 1) does the source give for `COc1c(OCCC2CCCCC2)cccc1-c1csc(NC(=O)c2cc(F)c(/C=C(\C)C(=O)O)c(F)c2)n1` [Compound B1916] here?
Answer: 12.9 nM

Question: Which EC50 (Table 2) does the source give for `CO/C(=C\c1c(Cl)cc(C(=O)Nc2nc(-c3cccc(C(OC)C(C)(C)C)c3F)c(OC)s2)cc1Cl)C(=O)O` (stereo not shown) [Compound B1909, (Z)-3-(2,6-dichloro-4-{4-[2-fluoro-3-(1-methyloxy-2,2-dimethylpropyl)phenyl]-5-methyloxythiazol-2-ylcarbamoyl}phenyl)-2-methyloxyacrylic acid] here?
Answer: 25.9 nM

Question: How did the EC50 (Table 1) turn out when `CC(=Cc1c(F)cc(C(=O)Nc2nc(-c3cccc(CCC(C)(C)C)c3F)cs2)cc1F)C(=O)O` [Compound B2, 3-(2,6-difluoro-4-{4-[3-(3,3-dimethylbutyl)-2-fluorophenyl]thiazol-2-ylcarbamoyl}phenyl)-2-methylacrylic acid] was run?
Answer: 4 nM

Question: `CCCOCCCc1cccc2c1CCc1sc(NC(=O)c3cc(F)c(C=C(C)C(=O)O)c(F)c3)nc1-2` [Compound A9, 3-{2,6-difluoro-4-[4,5-dihydro-6-(3-n-propyloxypropyl)naphto[1,2-d]thiazol-2-ylcabamoyl]phenyl}-2-methylacrylic acid] was tested. Which EC50 (Table 1) did it give?
Answer: 3 nM

Question: For “3-[2,6-difluoro-4-(4-{2-fluoro-3-{1-(3-methylbutyloxypropyl)phenyl]thiazol-2-ylcarbamoyl}phenyl)-2-methylacrylic acid [Compound B18]”, which EC50 (Table 1) is on record?
Answer: 0.57 nM

Question: Which EC50 (Table 1) does the source give for `CCCCCOC(CCCC)c1cccc(-c2csc(NC(=O)c3cc(Cl)c(C=C(C)C(=O)O)c(Cl)c3)n2)c1F` (stereo not shown) [Compound B70, 3-(2,6-dichloro-4-{4-[2-fluoro-3-(1-n-pentyloxypentyl)phenyl]thiazol-2-ylcarbamoyl}phenyl)-2-methylacrylic acid] here?
Answer: 0.43 nM

Question: How did the EC50 (Table 1) turn out when `CCCCOC(C)c1cccc(-c2csc(NC(=O)c3cc(Cl)c(C=C(C)C(=O)O)c(Cl)c3)n2)c1F` (stereo not shown) [Compound B98, 3-(4-{4-[3-(1-n-butyloxyethyl)-2-fluorophenyl]thiazol-2-ylcarbamoyl)-2,6-dichlorophenyl]-2-methylacrylic acid] was run?
Answer: 0.73 nM

Question: `CCCCOCCCc1cccc2c1CCc1sc(NC(=O)c3cc(F)c(C=C(C)C(=O)O)c(F)c3)nc1-2` [Compound A5, 3-{4-[6-(3-n-butyloxypropyl)-4,5-dihydronaphto[1,2-d]thiazol-2-ylcabamoyl]-2,6-difluorophenyl}-2-methylacrylic acid] was tested. Which EC50 (Table 1) did it give?
Answer: 1.91 nM

Question: For `CCCCOC(c1cccc(-c2csc(NC(=O)c3cc(F)c(/C=C(\C)C(=O)O)c(F)c3)n2)c1OC)C(C)(C)C` (stereo not shown) [Compound B425, (E)-3-(4-{4-[3-(1-butyloxy-2,2-dimethylpropyl)-2-methyloxyphenyl]thiazol-2-ylcarbamoyl}-2,6-difluorophenyl)-2-methylacrylic acid], which EC50 (Table 1) is on record?
Answer: 2.01 nM

Question: For `CCCCCCCOCCc1cccc(-c2csc(NC(=O)c3cc(F)c(/C=C(\OC)C(=O)O)c(F)c3)n2)c1OC` [Compound B1953, (Z)-3-(2,6-difluoro-4-{4-[3-(2-heptyloxyethyl)-2-methyloxyphenyl]thiazol-2-ylcarbamoyl}phenyl)-2-methyloxyacrylic acid], which EC50 (Table 1) is on record?
Answer: 10.1 nM

Question: Which EC50 (Table 1) does the source give for `CC(=Cc1c(Cl)cc(C(=O)Nc2nc(-c3cccc(CCCOCCCC(C)C)c3F)cs2)cc1Cl)C(=O)O` [Compound B84, 3-[2,6-dichloro-4-(4-[2-fluoro-3-[3-(4-methylpentyloxy)propyl]phenyl]thiazol-2-ylcarbamoyl)phenyl]-2-methylacrylic acid] here?
Answer: 1.02 nM

Question: How did the EC50 (Table 1) turn out when `CC(=Cc1c(F)cc(C(=O)Nc2nc(-c3cccc(CCCOCC(C)(C)C)c3F)cs2)cc1F)C(=O)O` [Compound B20] was run?
Answer: 0.81 nM

Question: For `CCCCCOCCCc1cccc(-c2csc(NC(=O)c3cc(F)c(C=C(C)C(=O)O)c(F)c3)n2)c1F` [Compound B45, 3-(2,6-difluoro-4-{4-[2-fluoro-3-(3-n-pentyloxypropyl)phenyl]thiazol-2-ylcarbamoyl}phenyl)-2-methylacrylic acid], which EC50 (Table 1) is on record?
Answer: 1.36 nM

Question: `CCCCCCOCCc1cccc(-c2csc(NC(=O)c3cc(F)c(/C=C(\C)C(=O)O)c(F)c3)n2)c1OC` [Compound B1926, (E)-3-(2,6-difluoro-4-{4-[3-(2-hexyloxyethyl)-2-methyloxyphenyl]thiazol-2-ylcarbamoyl)phenyl)-2-methylacrylic acid] was tested. Which EC50 (Table 1) did it give?
Answer: 15.6 nM

Question: Which EC50 (Table 1) does the source give for `CCCCCOC(CCC)c1cccc(-c2csc(NC(=O)c3cc(F)c(C=C(C)C(=O)O)c(F)c3)n2)c1F` (stereo not shown) [Compound B36, 3-(2,6-difluoro-4-{4-[2-fluoro-3-(1-n-pentyloxybutyl)phenyl]thiazol-2-ylcarbamoyl}phenyl)-2-methylacrylic acid] here?
Answer: 0.63 nM

Question: `CCCCCOCCCC(OC)c1cccc(-c2csc(NC(=O)c3cc(F)c(C=C(C)C(=O)O)c(F)c3)n2)c1F` (stereo not shown) [Compound B53, 3-(2,6-difluoro-4-{4-[2-fluoro-3-(1-methyloxy-4-n-pentyloxybutyl)phenyl]thiazol-2-ylcarbamoyl}phenyl)-2-methylacrylic acid] was tested. Which EC50 (Table 1) did it give?
Answer: 1.4 nM

Question: `COc1c(COCCC(C)C)cccc1-c1csc(NC(=O)c2cc(Cl)c(/C=C(\C)C(=O)O)c(Cl)c2)n1` [Compound B2028, (E)-3-(2,6-dichloro-4-{4-[2-methyloxy-3-(3-methylbutyloxymethyl)phenyl]thiazol-2-ylcarbamoyl}phenyl)-2-methylacrylic acid] was tested. Which EC50 (Table 1) did it give?
Answer: 11.4 nM

Question: `CCCCOCc1cccc(-c2csc(NC(=O)c3cc(Cl)c(/C=C(\C)C(=O)O)c(Cl)c3)n2)c1OC` [Compound B1995, (E)-3-{4-[4-(3-butyloxymethyl-2-methyloxyphenyl)thiazol-2-ylcarbamoyl]-2,6-dichlorophenyl}-2-methylacrylic acid] was tested. Which EC50 (Table 1) did it give?
Answer: 10.9 nM

Question: With `CCCCCOCCc1cccc(-c2csc(NC(=O)c3cc(F)c(/C=C(\C)C(=O)O)c(F)c3)n2)c1OC` [Compound B1924, (E)-3-(2,6-difluoro-4-{4-[2-methyloxy-3-(2-pentyloxyethyl)phenyl]thiazol-2-ylcarbamoyl)phenyl)-2-methylacrylic acid] as the compound, how does the EC50 (Table 2) read?
Answer: 20.6 nM

Question: For `CO/C(=C\c1c(Cl)cc(C(=O)Nc2nc(-c3cccc(CCCOCC(C)(C)C)c3)c(OC)s2)cc1Cl)C(=O)O` [Compound B1901, (Z)-3-[2,6-dichloro-4-(4-{3-[3-(2,2-dimethylpropyloxy)propyl]phenyl}-5-methyloxythiazol-2-ylcarbamoyl)phenyl]-2-methyloxyacrylic acid], which EC50 (Table 2) is on record?
Answer: 24.2 nM

Question: Which EC50 (Table 1) does the source give for `CCCCCOC(CC)c1cccc(-c2csc(NC(=O)c3cc(Cl)c(C=C(C)C(=O)O)c(Cl)c3)n2)c1F` (stereo not shown) [Compound B67, 3-[2,6-dichloro-4-(4-{3-[1-n-pentyloxypropyl]-2-fluorophenyl}thiazol-2-ylcarbamoyl)phenyl]-2-methylacrylic acid] here?
Answer: 0.48 nM

Question: Which EC50 (Table 2) does the source give for `CO/C(=C\c1c(F)cc(C(=O)Nc2nc(-c3cccc(C(CCOC(C)C)OC)c3F)cs2)cc1F)C(=O)O` (stereo not shown) [Compound B2012, (Z)-3-(2,6-difluoro-4-{4-[2-fluoro-3-(3-isopropyloxy-1-methyloxypropyl)phenyl]thiazol-2-ylcarbamoyl}phenyl)-2-methyloxyacrylic acid] here?
Answer: 24.2 nM

Question: How did the EC50 (Table 1) turn out when `CCOC(c1cccc(-c2csc(NC(=O)c3cc(F)c(C=C(C)C(=O)O)c(F)c3)n2)c1F)C1CCCCC1` (stereo not shown) [Compound B6, 3-(4-{4-[3-(1-cyclohexyl-1-ethyloxymethyl)-2-fluorophenyl]thiazol-2-ylcarbamoyl}-2,6-difluorophenyl)-2-methylacrylic acid] was run?
Answer: 2.4 nM

Reference: patent US7601746B2 (Shionogi & Co., Ltd., priority 2003, dated 2009)
